Experimental data published in US9068228B2, “Method for screening ameliorants of dry skin caused by atopic dermatitis using bleomycin hydrolase activity as indicator” (Shiseido Company, Ltd., priority 2009, dated 2015).
Entries after “also recorded” stand apart in the source; their conditions may differ.

Legend:
Format in all cases: cell-based, human
[1] = test system: IRF-1 mRNA; experiment: Real-time RT-PCR of transcription factor expression under cytokines (FIG. 22)
Procedure: (§1) The transcription levels of BH and related factors were analyzed by quantitative real-time RT-PCR. Total RNA was extracted from cultured cells using Isogen (Nippon Gene, Tokyo, Japan) in accordance with the manufacturer's protocol. The total RNA was reverse-transcribed to cDNA using SuperScript™ II (Invitrogen, Carlsbad, Calif.). Real-time RT-PCR was carried out with the LightCycler Raid Cycler System using the LightCycler 480 SYBR Green I Master (Roche Diagnostics) in accordance with the manufacturer's protocol. Glyceraldehyde 3-phosphate dehydrogenase (GAPDH) was used as a reference gene. Specificity of the amplified fragments was confirmed by quantitative analysis of melting curves using LightCycler analytical software. The amounts of mRNA were standardized based on the mRNA of GAPDH and finally indicated as a ratio to mRNA of an untreated control.
(§2) An investigation was made of the cytokine-dependent regulation of these transcription factors.

[2] = test system: IRF-2; experiment: as above
Procedure: as §1, §2

[3] = test system: bleomycin hydrolase mRNA; experiment: Effect of cytokines on bleomycin hydrolase mRNA expression by quantitative PCR (Experiment 5, FIG. 14); details: proliferative stage cultured keratinocytes, incubated 24 hours; IL-4 and TNF-α 0.1-10 ng/ml, IFN-γ 1.0-100 ng/ml
Procedure: (§3) Normal human epidermal keratinocytes derived from neonatal epidermis (Kurabo, Osaka, Japan) were cultured in EpiLife medium (Cascade Biologics, Portland, Oreg.) containing low-concentration (0.03 mM) calcium and HKGS Growth Supplement (Cascade Biologics). All cells were incubated at 37° C. while supplying 5% CO2 and were used within 4 passages. Cells were collected at 70% confluence, 100% confluence, 2 days after confluence and 2 days after confluence in 2 mM calcium.
The expression level of bleomycin hydrolase in keratinocytes was measured by quantitative PCR using the method described below. Measurement was carried out using the Light Cycler 480 (Roche Diagnostics GmbH, Mannheim, Germany), while Light Cycler FastStart DNA Master CYBR Green I was used for the reagent. 0.6 μl aliquots of each of the following bleomycin hydrolase primers and […] of water were added to 10 μl of SYBR Green I master mix to bring to a total volume of 20 μl followed by carrying out 45 cycles of PCR consisting of 15 seconds at 95° C., 20 seconds at 55° C. and 20 seconds at 72° C. The results obtained were corrected by comparing with the results for a housekeeping gene in the form of G3PDH. • Forward primer: […] (SEQ ID NO. 1) • Reverse primer: […] (SEQ ID NO. 2)
IL-4 (final concentration: 0.1, 1.0 or 10 ng/ml), TNF-α (final concentration: 0.1, 1.0 or 10 ng/ml) and IFN-γ (final concentration: 1.0, 10 or 100 ng/ml) were respectively added to proliferative stage cultured keratinocytes, and after incubating for 24 hours, RNA was collected using Isogen. Expression of bleomycin hydrolase mRNA was measured by quantitative PCR. Based on the results shown in FIG. 14, interleukin-4 (IL-4), which is a type of Th2 cytokine, was determined to down-regulate expression of bleomycin hydrolase.

[4] = test system: BH promoter; experiment: BH promoter luciferase assay in transfected keratinocytes (FIG. 20B)
Procedure: The graphs indicate the effects of cytokines Th1, Th2 and Th17 on BH gene expression. […] The graphs indicate BH promoter activity in cultured keratinocytes in the presence of IFN-γ. Keratinocytes were transfected with pGL3-216 containing intact IRF-1/2 binding sites of BH promoter regions followed by treating for 24 hours with IFN-γ (upper panel). Keratinocytes were transfected with ΔpGL3-616 (IRF-1/2 deletion mutants) followed by treating for 24 hours in the presence or absence of IFN-γ or IL-4 at 10 ng/ml (lower panel). […] Keratinocytes were transfected with siRNA (40 nM) of IRF-1 or IRF-2 followed by culturing for 24 hours, treating with IFN-γ at 10 ng/ml and isolating RNA after further culturing for 24 hours. The panel on the right indicates the silencing effects of IRF-1 and IRF-2.
Keratinocytes were cultured in a 12-well tissue culture plate at a density of 5×10^4 cells/well, and were transfected using FuGene HD Transfection reagent (Roche Diagnostics, Basel, Switzerland) and 1 μg aliquots of each construct. […] Luciferase activity was analyzed using the Dual Luciferase Reporter Assay System (Promega) and Autolumat Plus Luminometer (Berthold Technologies, Bad Wildbad, Germany). […]

[5] = test system: BH mRNA; experiment: Real-time RT-PCR analysis of BH gene expression under cytokines (Experiment 6, FIG. 20A); details: proliferative keratinocytes, 24 hours, ratio to untreated control
Procedure: as §3, §1
Since BH is an NMF-generating enzyme, it has the potential to be involved in the pathophysiology of AD. Accordingly, an investigation was made of the effects of cytokines Th1, Th2 and Th17 on BH gene expression. […] Similar results were obtained with differentiated keratinocytes (data not shown). A promoter assay was carried out in order to determine the role of IFN-γ in regulation of BH gene expression, and response elements were specified. […] In addition, IRF-1 and IRF-2 gene expression was inhibited using small interfering RNA (siRNA) in order to determine whether or not IRF-1/2 is an essential mediator of IFN-γ-induced down-regulation of BH.

[6] = test system: MZF-1; experiment: Real-time RT-PCR of transcription factor expression under cytokines (FIG. 22)
Procedure: as §1, §2

[7] = test system: Sp-1; experiment: as above
Procedure: as §1, §2

[8] = cultured keratinocytes, concentration not given

In the case of “IFN-γ: Human IFN-γ purchased from Peprotech EC; Th1 cytokine”, the “expression of IRF-1 mRNA” value ([1]; IFN-γ, dose-dependent) is reported as “strongly up-regulates”, the “expression of IRF-2” value ([2]; in the presence of IFN-γ) is reported as “up-regulated” and the “expression of bleomycin hydrolase mRNA” value [3] is reported as “significantly increases”. The “BH promoter activity after deletion of IRF-1/2 binding sequence” value ([4]; keratinocytes transfected with IRF-1/2 deletion mutant, 10 ng/ml, 24 hours) was “no longer inhibited”, the BH promoter activity ([4]; proliferative keratinocytes transfected with pGL3-BH-616 containing IRF-1/2 binding sequence, IFN-γ 24 hours) was “down-regulated” and the “expression of BH mRNA” value [5] was “down-regulated; also recorded: remarkably decreased”. For the same substance, the “expression of BH mRNA” value ([5]; listed as IFN) was “significantly decreased”.

“IL-4: Human IL-4 purchased from Peprotech EC; Th2 cytokine” was tested, and the “expression of IRF-1” value ([1]; IL-4 at 100 ng/ml only) was “significantly enhanced”, the “expression of MZF-1” value ([6]; IL-4 at 10 ng/ml) was “most effectively down-regulated” and the “expression of MZF-1” value [6, 8] was “significantly inhibited; also recorded: down-regulated”. For the same substance, the “expression of Sp-1” value ([7]; IL-4 at 10 ng/ml) was “most effectively down-regulated”, the “expression of Sp-1” value [7, 8] was “significantly inhibited; also recorded: down-regulated” and the “expression of IRF-2” value ([2]; IL-4 at 100 ng/ml only) was “significantly enhanced”. The “expression of bleomycin hydrolase mRNA” value [3] was “down-regulates” and the “expression of BH mRNA” value [5] was “did not demonstrate any direct action whatsoever”.

“IL-13: Human IL-13 produced by R&D Systems Inc.; Th2 cytokine” was tested, and the “expression of MZF-1” value [6, 8] was “significantly inhibited”, the “expression of Sp-1” value [7, 8] was “significantly inhibited” and the “expression of BH mRNA” value [5] was “did not demonstrate any direct action whatsoever”.

For TNF-α, the “expression of bleomycin hydrolase mRNA” value [3] was “significantly increases”.
